Experimental data from article PMC5789824, “A presumed homologue of the regulatory subunits of eIF2B functions as ribose-1,5-bisphosphate isomerase in Pyrococcus horikoshii OT3” (Scientific Reports, 2018).
Where two headings read alike, the source gives them in different places.

What was measured:
[1] = test system: ribose-1,5-bisphosphate isomerase (R15Pi); design: method as in PMID 23065974; details: result in words; cited from earlier work
[2] = target: T1, PH0208 protein (PH0208-WT, PH0208-C135S, PH0208-D204N) (Pyrococcus horikoshii, UniProt O57947, M1V); test: Co-crystallization or soaking with ribonucleotides (crystal structure complexes); assay type: binding, Pyrococcus horikoshii OT3; details: for binding of ribonucleotide seen in crystal structure (electron density): co-crystallization or soaking of PH0208-WT, -C135S, -D204N; for preferred molecule at the 'AMP binding site': crystallized in presence of both AMP (1.5 mM) and GMP (4.5 mM)
T1 construct: an N-terminal α-helical domain (residues 1–122) and a C-terminal α-β-α sandwich domain (residues 123–324); made in house; host or cells: Escherichia coli Rosetta (DE3)
Description: To identify the binding site of ribonucleotides, either co-crystallization or soaking of PH0208-WT, PH0208-C135S and PH0208-D204N proteins with AMP, GMP, CMP and TMP was performed. […] The binding site of AMP lies at the interface of three monomers (chain A, B and D) of the hexameric protein (Fig. 4a). The side chains of Arg124 and Asp290 of chain A undergoes a shift towards AMP to form hydrogen bond with the O2′ and O3′ oxygen atoms of the ribose sugar (Fig. 4b). Another two residues of chain A, Arg229 and Trp231 are involved in interacting with the phosphate groups of the AMP molecule. The side chain atoms of Asn209 and the backbone atoms of Val251 of chain B forms hydrogen bond with the oxygen (O2′ and O3′) atoms of the ribose sugar and the nitrogen (N1 and N6) atom of the adenosine base ring, respectively. Along with chain A and chain B, AMP also binds to a third protomer of the hexameric protein through interactions involving the side chain atoms of Arg190 and Lys194 of chain D (Fig. 4c). Thus, one AMP molecule positions itself to hold three protomers of the hexamer. All the amino acid residues of PH0208 protein forming hydrogen bond with AMP are found to be absolutely conserved in R15Pi enzymes. […] In case of both the mutants, PH0208-C135S and PH0208-D204N, AMP occupies a similar position to that of PH0208-WT protein with the major interactions arising from the three subunits of the hexamer. Similar to PH0208-WT, the adenosine base ring interacts with Val251 of chain B, the oxygen atoms of ribose sugar interacts with Arg124 & Asp290 of chain A and Asn209 of chain B while the phosphate group forms hydrogen bond with Arg229 & Trp231 of chain A and Arg190 & Lys194 of chain D of the mutant proteins (Fig. 4d–f).
To obtain crystals of PH0208-WT, an initial screening was performed by mixing 2 μl of protein and 2 μl of crystallization condition available in Crystal Screen, Crystal Screen 2 and PEG/Ion kits from Hampton research at 277 K and 293 K by the microbatch-under-oil technique. Further refinement of one of the conditions containing 2.0 M NaCl and 10% (w/v) PEG 6000 using hanging-drop vapor-diffusion technique in 24-well plate was performed to obtain better crystals. However, crystals of the apo form of PH0208-WT protein diffracted very poorly. To obtain diffraction quality crystals, the substrate (R15P) was added to the crystallization drop which was then equilibrated against 500 μl of 0.7 M NaCl and 3% PEG 6000. Yet, the crystals formed diffracted to a resolution of ~7 Å, only. […] For co-crystallization of PH0208-WT, PH0208-C135S and PH0208-D204N with different ligands, the final protein concentration was kept at 9.5, 9.0 and 7.0 mg ml^−1, respectively in 20 mM Tris-HCl pH 8.0 and 150 mM KCl. The final concentration of R15P in the crystallization drops were 8.33–9 mM while that of AMP, GMP, CMP and TMP were 1.66, 4.5 & 9, 1.66 and 9 mM, respectively. In case of ligand soaking, the concentration of AMP was kept at 5 mM. For obtaining the crystals of ligand bound PH0208-C135S and PH0208-D204N complexes, the reservoir buffer was further supplemented with 0.1–0.3% of low melting (LM) agarose. All the crystals were obtained in hanging-drop vapor-diffusion method at 20 °C within a period of 2–7 days.

[3] = target: T2, PH0208-C135A mutant protein (Pyrococcus horikoshii, UniProt O57947, C135A); test: biochemical; assay type: binding, Pyrococcus horikoshii OT3
T2 construct: an N-terminal α-helical domain (residues 1–122) and a C-terminal α-β-α sandwich domain (residues 123–324); made in house; host or cells: Escherichia coli Rosetta (DE3)
Description: Henceforth, Cys135 was mutated to alanine (PH0208-C135A) to understand its role in ligand (R15P/RuBP) binding.
(§1) ITC experiments of mutant proteins (PH0208-C135S, PH0208-C135A and PH0208-D204N) with the substrate (R15P) and the product (RuBP) molecules were measured at 25 °C using MicroCal iTC200. Before ITC experiments, the proteins were dialyzed extensively in buffer (20 mM Tris-HCl pH 8.0 and 150 mM KCl) and the equilibrated buffer was subsequently used to prepare ligand solutions to minimize the heat of dilution effects. Each titration consisted of a preliminary injection of 0.4 μl of 7.5–8.0 mM of R15P and RuBP followed by 24 injections of 1.2 μl (spacing 120 s) into the sample cell filled with protein at a final concentration of 75–80 μM. During titration, the syringe rotated at a speed of 450 rpm to facilitate adequate mixing of the reactants. Data were analyzed using MicroCal ORIGIN software and baselines were subtracted from data to obtain accurate heat exchanges.

[4] = target: T3, PH0208-D204N mutant protein (Pyrococcus horikoshii, UniProt O57947, D204N); test: biochemical; assay type: binding, Pyrococcus horikoshii OT3
T3 construct: an N-terminal α-helical domain (residues 1–122) and a C-terminal α-β-α sandwich domain (residues 123–324); made in house; host or cells: Escherichia coli Rosetta (DE3)
Description: (§2) To determine the binding affinity of the substrate (R15P) and the product (RuBP) to the protein PH0208, isothermal titration calorimetry (ITC) experiments were performed. Since binding of the substrate to the PH0208-WT protein triggers a conformational change along with the formation of the product, the heat change measured during the ITC experiment would reflect the sum of heat generated and absorbed during each event. As a result, the binding affinity (Kd) of PH0208 and R15P/RuBP obtained would be delusional. Therefore, binding affinity was studied using the mutant proteins, PH0208-C135S and PH0208-D204N in which case the heat change would be solely due to ligand binding.
as §1

[5] = target: T4, PH0208-C135S mutant protein (Pyrococcus horikoshii, UniProt O57947, C135S); test: biochemical; assay type: binding, Pyrococcus horikoshii OT3
T4 construct: an N-terminal α-helical domain (residues 1–122) and a C-terminal α-β-α sandwich domain (residues 123–324); made in house; host or cells: Escherichia coli Rosetta (DE3)
Description: as §2, §1

T3 sequence (O57947 whole entry D204N, the tested form may be a part): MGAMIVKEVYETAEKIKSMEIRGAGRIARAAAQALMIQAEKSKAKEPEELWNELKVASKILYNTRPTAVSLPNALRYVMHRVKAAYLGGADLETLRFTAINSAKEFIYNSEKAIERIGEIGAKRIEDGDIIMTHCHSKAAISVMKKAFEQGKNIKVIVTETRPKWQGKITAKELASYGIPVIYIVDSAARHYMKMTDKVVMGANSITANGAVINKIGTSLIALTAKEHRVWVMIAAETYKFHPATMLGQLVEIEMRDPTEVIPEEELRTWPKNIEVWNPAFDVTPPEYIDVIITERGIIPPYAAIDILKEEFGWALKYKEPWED
T2 sequence (O57947 whole entry C135A, the tested form may be a part): as the sequence (O57947 whole entry D204N, the tested form may be a part) above, with C135A, N204D counted along it
T1 sequence (O57947 whole entry M1V, the tested form may be a part): as the sequence (O57947 whole entry D204N, the tested form may be a part) above, with M1V, N204D counted along it
T4 sequence (O57947 whole entry C135S, the tested form may be a part): as the sequence (O57947 whole entry D204N, the tested form may be a part) above, with C135S, N204D counted along it

Nc1ncnc2c1ncn2[C@@H]1O[C@H](COP(=O)(O)O)[C@@H](O)[C@H]1O [AMP, adenosine 5′-monophosphate]
effect on enzymatic activity / catalytic efficiency of R15Pi [1]: activator of R15Pi
binding of ribonucleotide seen in crystal structure (electron density) [2]: bound to the proteins
preferred molecule at the 'AMP binding site' [2]: AMP outcompete GMP and binds to the ‘AMP binding site’

Nc1ncnc2c1ncn2[C@@H]1O[C@H](COP(=O)(O)OP(=O)(O)OP(=O)(O)O)[C@@H](O)[C@H]1O [ATP, adenosine 5ʹ-triphosphate]
effect on enzymatic activity / catalytic efficiency of R15Pi [1]: inability

Nc1ccn([C@@H]2O[C@H](COP(=O)(O)O)[C@@H](O)[C@H]2O)c(=O)n1 [CMP, cytosine 5′-monophosphate]
effect on enzymatic activity / catalytic efficiency of R15Pi [1]: neither cytosine 5′-monophosphate (CMP) nor thymidine 5′-monophospahte (TMP) possesses the ability to increase the enzymatic activity
binding of ribonucleotide seen in crystal structure (electron density) [2]: no electron density

Nc1nc2c(ncn2[C@@H]2O[C@H](COP(=O)(O)O)[C@@H](O)[C@H]2O)c(=O)[nH]1 [GMP, guanosine 5′-monophosphate]
effect on enzymatic activity / catalytic efficiency of R15Pi [1]: elevates the activity of R15Pi, though to a lesser extent as compared to AMP
binding of ribonucleotide seen in crystal structure (electron density) [2]: bound to the proteins
preferred molecule at the 'AMP binding site' [2]: GMP binds to the ‘GMP binding loop’

O=P(O)(O)OC[C@H]1OC(OP(=O)(O)O)[C@H](O)[C@@H]1O (stereo partly shown) [R15P, ribose-1,5-bisphosphate]
interaction with PH0208-C135A (ITC) ([3]; ITC, 25 °C, result in words): did not show any interaction
Ka ([4]; ITC, 25 °C): 99100 ± 2630 M⁻¹
T∆S ([4]; ITC, 25 °C): 7.77 kcal/mol
∆G ([4]; ITC, 25 °C): -6.8 kcal/mol
∆H ([4]; ITC, 25 °C): 0.981 ± 0.049 kcal/mol
Kd ([4]; ITC, 25 °C, read-out: Kd): 10 µM
Ka ([5]; ITC, 25 °C): 72000 ± 7130 M⁻¹
T∆S ([5]; ITC, 25 °C): 7.03 kcal/mol
∆G ([5]; ITC, 25 °C): -6.6 kcal/mol
∆H ([5]; ITC, 25 °C): 0.403 ± 0.013 kcal/mol
N ([5]; ITC, 25 °C, single-site model, '(fixed)' = fixed in fit): 1.17 ± 0.03
Kd ([5]; ITC, 25 °C, read-out: Kd): 13.8 µM

O=C(COP(=O)(O)O)[C@H](O)[C@H](O)COP(=O)(O)O [RuBP, ribulose-1,5-bisphosphate]
Kd [3]: 309 µM
Ka ([3]; ITC, 25 °C): 3.23 × 10^3 ± 299 M^−1
T∆S ([3]; ITC, 25 °C): -4.14 kcal/mol
∆G ([3]; ITC, 25 °C): -4.8 kcal/mol
∆H ([3]; ITC, 25 °C): -8.94 ± 0.40 kcal/mol
Kd [4]: 7.2 µM
Ka ([4]; ITC, 25 °C): 139000 ± 12000 M⁻¹
T∆S ([4]; ITC, 25 °C): 4.05 kcal/mol
∆G ([4]; ITC, 25 °C): -7.0 kcal/mol
∆H ([4]; ITC, 25 °C): -2.95 ± 0.06 kcal/mol
Kd [5]: 7.5 µM
Ka ([5]; ITC, 25 °C): 133000 ± 72100 M⁻¹
T∆S ([5]; ITC, 25 °C): 2.24 kcal/mol
∆G ([5]; ITC, 25 °C): -6.98 kcal/mol
∆H ([5]; ITC, 25 °C): -4.74 ± 0.39 kcal/mol

Nc1ncnc2c1ncn2[C@@H]1O[C@H](CSCC[C@H](N)C(=O)O)[C@@H](O)[C@H]1O [SAH, S-adenosyl homocysteine]
effect on enzymatic activity / catalytic efficiency of R15Pi [1]: inability

C[S+](CC[C@H](N)C(=O)[O-])C[C@H]1O[C@@H](n2cnc3c(N)ncnc32)[C@H](O)[C@@H]1O (stereo partly shown) [SAM, S-adenosyl methionine]
effect on enzymatic activity / catalytic efficiency of R15Pi [1]: inability

Cc1cn([C@H]2C[C@H](O)[C@@H](COP(=O)(O)O)O2)c(=O)[nH]c1=O [TMP, thymidine 5′-monophospahte]
effect on enzymatic activity / catalytic efficiency of R15Pi [1]: neither cytosine 5′-monophosphate (CMP) nor thymidine 5′-monophospahte (TMP) possesses the ability to increase the enzymatic activity
binding of ribonucleotide seen in crystal structure (electron density) [2]: no electron density
